Experimental data reported in patent publication US12351789B2, “Method for producing cell laminate” (FUJIFILM CORPORATION, priority 2017, dated 2025).

System: cell laminate comprising a vascular endothelial cell layer and a smooth muscle cell layer on an HCM
Test: Evaluation of response to physiologically active substances (thrombin added to cell laminate, microscopy)
Format: cell-based
Settings: 37° C., 30 minutes, rat VEC/SMC-HCM insert
Description: (1) 0.1 mg (100 UN) of thrombin (#T7009-100UN, Sigma) was dissolved in 100 μL of physiological saline to prepare a thrombin solution having a concentration of 1000 U/mL. The thrombin solution was further diluted with HBSS(+) to prepare a 25 U/mL thrombin solution and a 100 U/mL thrombin solution.
(2) 900 μL of HBSS(+) was added to each of the wells of a 24-well plate.
(3) The inserts comprising the cell laminate were taken out of the medium, the medium was removed from the inner side of each insert using an aspirator, and the inserts were placed in the wells.
(4) 200 μL of either HBSS(+) (control), the 25 U/mL thrombin solution, or the 100 U/mL thrombin solution was added to the inner side of each of the inserts placed on the wells, and the inserts were incubated at 37° C. for 30 minutes.
(5) The state of the cell laminate was observed under a microscope. The microscopic image of the cell laminate is shown in FIG. 9 (superimposed image of red fluorescence: VE-cadherin and green fluorescence: α-smooth muscle actin).

Substance: thrombin
- cell contraction (25 U/mL or 100 U/mL thrombin solution, HBSS(+) control): cell contraction due to activation of actin stress fibers caused by the addition of thrombin was observed
- dependence of cell contraction on thrombin concentration (25 U/mL versus 100 U/mL thrombin solution): Higher thrombin concentrations caused stronger cell contractions
